Measurements reported in patent US11884671B2, “Purinone compounds and their use in treating cancer” (ASTRAZENECA AB, priority 2018, dated 2024).

Key:
[1] = biological target: TTK (Homo sapiens (Human), UniProt P33981); assay: TTK enzyme assay (LanthaScreen Eu Kinase Binding); details: arithmetic mean of two or more experiments; for IC50: read-out: TTK enz pIC50 (converted)
Description: The inhibitory activity of compounds against TTK was determined in a LanthaScreen® Eu Kinase Binding assay run by ThermoFisher Scientific as part of their SelectScreen® Biochemical Kinase Profiling Service. The LanthaScreen® Eu Kinase Binding assay format uses binding of an Alexa Fluor® conjugate or “tracer” to a kinase, which is detected by addition of a Eu-labeled anti-tag antibody. […] The degree of FRET measured in the assay is used to determine the binding of a compound.
(§1) 10 point three-fold dilution compound concentration-response curves, with a top concentration of 10 μM were generated from 10 mM stocks of compound solubilised in DMSO. All assays were performed in white, low volume Greiner 384-well plates (cat. #784207, Greiner), in a total reaction volume of 16 μL and 1% (v/v) final DMSO concentration. […] Plates were then read using a fluorescence plate reader. IC50 values were calculated using XLfit software (IDBS Ltd, Surrey, UK), with the curve fit to model number 205 (sigmoidal dose-response model).

[2] = biological target: JAK1 (Homo sapiens (Human), UniProt P23458); assay: JAK1 enzyme assay (Z'-LYTE); assay type: biochemical; details: 75 μM ATP, arithmetic mean of two or more experiments; for IC50: read-out: JAK1 enz pIC50 (converted)
Sequence of JAK1 (P23458 whole entry): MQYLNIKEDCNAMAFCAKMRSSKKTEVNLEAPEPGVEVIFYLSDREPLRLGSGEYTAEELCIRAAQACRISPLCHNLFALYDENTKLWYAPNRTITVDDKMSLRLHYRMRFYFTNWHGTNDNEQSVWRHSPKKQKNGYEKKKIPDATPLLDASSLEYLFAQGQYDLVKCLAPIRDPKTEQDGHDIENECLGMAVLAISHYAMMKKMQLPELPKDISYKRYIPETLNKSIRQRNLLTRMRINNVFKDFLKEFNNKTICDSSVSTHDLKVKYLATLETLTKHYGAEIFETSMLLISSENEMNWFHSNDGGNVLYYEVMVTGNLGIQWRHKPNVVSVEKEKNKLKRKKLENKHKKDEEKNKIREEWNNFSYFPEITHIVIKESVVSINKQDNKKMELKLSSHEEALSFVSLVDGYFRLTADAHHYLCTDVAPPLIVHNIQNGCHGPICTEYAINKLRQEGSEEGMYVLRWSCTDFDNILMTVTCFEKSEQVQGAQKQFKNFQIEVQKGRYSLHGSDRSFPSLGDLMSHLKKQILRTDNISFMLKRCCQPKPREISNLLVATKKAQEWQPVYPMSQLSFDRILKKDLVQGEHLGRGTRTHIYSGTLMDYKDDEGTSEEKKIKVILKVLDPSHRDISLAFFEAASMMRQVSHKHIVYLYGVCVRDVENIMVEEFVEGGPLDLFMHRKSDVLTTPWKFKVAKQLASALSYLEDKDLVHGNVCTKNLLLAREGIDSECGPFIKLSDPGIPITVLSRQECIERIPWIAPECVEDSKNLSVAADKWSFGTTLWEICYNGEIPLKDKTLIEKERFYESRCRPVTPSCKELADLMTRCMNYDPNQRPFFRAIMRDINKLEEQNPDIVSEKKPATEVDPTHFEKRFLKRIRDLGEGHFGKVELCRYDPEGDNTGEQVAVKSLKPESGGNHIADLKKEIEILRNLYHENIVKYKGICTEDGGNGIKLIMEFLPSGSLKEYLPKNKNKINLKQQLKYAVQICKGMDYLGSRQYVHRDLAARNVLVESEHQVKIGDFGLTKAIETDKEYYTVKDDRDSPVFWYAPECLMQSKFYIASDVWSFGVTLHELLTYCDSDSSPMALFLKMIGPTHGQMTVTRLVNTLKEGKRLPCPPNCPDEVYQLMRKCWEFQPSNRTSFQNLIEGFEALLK
Description: (§2) The inhibitory activity of compounds against AURKA, AURKB, JAK1, JAK2 and JAK3 was determined in Z′-LYTE® assays run by ThermoFisher Scientific as part of their SelectScreen® Biochemical Kinase Profiling Service. The Z′-LYTE® biochemical assay format employs a fluorescence-based, coupled-enzyme format and is based on the differential sensitivity of phosphorylated and non-phosphorylated peptides to proteolytic cleavage. The peptide substrate is labeled with two fluorophores—one at each end—that make up a FRET pair. In the primary reaction, the kinase transfers the gamma-phosphate of ATP to a single tyrosine, serine or threonine residue in a synthetic FRET-peptide. In the secondary reaction, a site-specific protease recognises and cleaves non-phosphorylated FRET-peptides. Phosphorylation of FRET-peptides suppresses cleavage by the Development Reagent. Cleavage disrupts FRET between the donor (i.e., coumarin) and acceptor (i.e., fluorescein) fluorophores on the FRET-peptide, whereas uncleaved, phosphorylated FRET-peptides maintain FRET. A ratiometric method, which calculates the ratio (the Emission Ratio) of donor emission to acceptor emission after excitation of the donor fluorophore at 400 nm, is used to quantitate reaction progress. Both cleaved and uncleaved FRET-peptides contribute to the fluorescence signals and therefore to the Emission Ratio. The extent of phosphorylation of the FRET-peptide can be calculated from the Emission Ratio.
as §1, with “black, non-binding,” for “white,”, “Corning” for “Greiner”, “#4514, Corning),” for “#784207, Greiner),”, “10” for “16”, “The kinase reaction was” for “Plates were”, “quenched by the addition of 5 μL of Development Reagent (ThermoFisher Scientific proprietary). […]” for “read using a fluorescence plate reader.”
JAK1: The 2×JAK/Tyr 06 (ThermoFisher Scientific proprietary) mixture was prepared in 50 mM HEPES pH 6.5, 0.01% BRIJ-35, 10 mM MgCl2, 1 mM EGTA, 0.02% NaN3. […] After the 1 hour Kinase Reaction incubation, 5 μL of a 1:128 dilution of Development Reagent was added.

[3] = biological target: JAK2 (Homo sapiens (Human), UniProt O60674); assay: JAK2 enzyme assay (Z'-LYTE); assay type: biochemical; details: 25 μM ATP, arithmetic mean of two or more experiments; for IC50: read-out: JAK2 enz pIC50 (converted)
Sequence of JAK2 (O60674 whole entry): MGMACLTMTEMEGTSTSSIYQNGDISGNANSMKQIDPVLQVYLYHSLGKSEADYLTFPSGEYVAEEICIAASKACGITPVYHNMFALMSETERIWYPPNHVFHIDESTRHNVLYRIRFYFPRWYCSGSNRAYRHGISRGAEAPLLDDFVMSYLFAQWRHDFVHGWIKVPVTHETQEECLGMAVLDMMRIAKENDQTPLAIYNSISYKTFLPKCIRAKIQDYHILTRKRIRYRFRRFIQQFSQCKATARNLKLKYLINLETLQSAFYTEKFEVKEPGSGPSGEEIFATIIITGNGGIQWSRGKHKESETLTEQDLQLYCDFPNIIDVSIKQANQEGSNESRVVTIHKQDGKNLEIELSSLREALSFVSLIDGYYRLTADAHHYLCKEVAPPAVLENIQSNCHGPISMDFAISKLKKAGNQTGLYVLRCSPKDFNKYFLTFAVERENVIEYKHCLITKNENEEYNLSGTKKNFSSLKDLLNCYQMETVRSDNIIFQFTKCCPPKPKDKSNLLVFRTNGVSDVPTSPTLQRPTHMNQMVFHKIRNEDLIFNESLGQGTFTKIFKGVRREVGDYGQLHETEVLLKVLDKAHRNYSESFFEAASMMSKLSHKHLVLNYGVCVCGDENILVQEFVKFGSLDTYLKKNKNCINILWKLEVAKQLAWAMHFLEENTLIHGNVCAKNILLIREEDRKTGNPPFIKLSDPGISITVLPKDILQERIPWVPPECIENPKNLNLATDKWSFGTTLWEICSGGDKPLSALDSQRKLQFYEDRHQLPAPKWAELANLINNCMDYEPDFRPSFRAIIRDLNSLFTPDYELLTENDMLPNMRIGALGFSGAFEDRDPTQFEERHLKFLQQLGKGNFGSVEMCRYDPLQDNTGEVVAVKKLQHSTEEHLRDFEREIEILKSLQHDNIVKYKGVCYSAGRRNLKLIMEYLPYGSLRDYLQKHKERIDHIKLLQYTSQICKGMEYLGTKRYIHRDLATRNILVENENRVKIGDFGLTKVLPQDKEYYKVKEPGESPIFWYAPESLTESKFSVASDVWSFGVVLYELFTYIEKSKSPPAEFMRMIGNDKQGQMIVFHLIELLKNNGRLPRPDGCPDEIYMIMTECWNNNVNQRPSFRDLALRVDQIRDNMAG
Description: as §2
as §1, with “black, non-binding,” for “white,”, “Corning” for “Greiner”, “#4514, Corning),” for “#784207, Greiner),”, “10” for “16”, “The kinase reaction was” for “Plates were”, “quenched by the addition of 5 μL of Development Reagent (ThermoFisher Scientific proprietary). […]” for “read using a fluorescence plate reader.”
JAK2: The 2×JAK2/Tyr 06 (ThermoFisher Scientific proprietary) mixture was prepared in 50 mM HEPES pH 7.5, 0.01% BRIJ-35, 10 mM MgCl2, 1 mM EGTA. […] After the 1 hour Kinase Reaction incubation, 5 μL of a 1:128 dilution of Development Reagent was added.

[4] = biological target: JAK3 (Homo sapiens (Human), UniProt P52333); assay: JAK3 enzyme assay (Z'-LYTE); assay type: biochemical; details: 10 μM ATP, arithmetic mean of two or more experiments; for IC50: read-out: JAK3 enz pIC50 (converted)
Sequence of JAK3 (P52333 whole entry): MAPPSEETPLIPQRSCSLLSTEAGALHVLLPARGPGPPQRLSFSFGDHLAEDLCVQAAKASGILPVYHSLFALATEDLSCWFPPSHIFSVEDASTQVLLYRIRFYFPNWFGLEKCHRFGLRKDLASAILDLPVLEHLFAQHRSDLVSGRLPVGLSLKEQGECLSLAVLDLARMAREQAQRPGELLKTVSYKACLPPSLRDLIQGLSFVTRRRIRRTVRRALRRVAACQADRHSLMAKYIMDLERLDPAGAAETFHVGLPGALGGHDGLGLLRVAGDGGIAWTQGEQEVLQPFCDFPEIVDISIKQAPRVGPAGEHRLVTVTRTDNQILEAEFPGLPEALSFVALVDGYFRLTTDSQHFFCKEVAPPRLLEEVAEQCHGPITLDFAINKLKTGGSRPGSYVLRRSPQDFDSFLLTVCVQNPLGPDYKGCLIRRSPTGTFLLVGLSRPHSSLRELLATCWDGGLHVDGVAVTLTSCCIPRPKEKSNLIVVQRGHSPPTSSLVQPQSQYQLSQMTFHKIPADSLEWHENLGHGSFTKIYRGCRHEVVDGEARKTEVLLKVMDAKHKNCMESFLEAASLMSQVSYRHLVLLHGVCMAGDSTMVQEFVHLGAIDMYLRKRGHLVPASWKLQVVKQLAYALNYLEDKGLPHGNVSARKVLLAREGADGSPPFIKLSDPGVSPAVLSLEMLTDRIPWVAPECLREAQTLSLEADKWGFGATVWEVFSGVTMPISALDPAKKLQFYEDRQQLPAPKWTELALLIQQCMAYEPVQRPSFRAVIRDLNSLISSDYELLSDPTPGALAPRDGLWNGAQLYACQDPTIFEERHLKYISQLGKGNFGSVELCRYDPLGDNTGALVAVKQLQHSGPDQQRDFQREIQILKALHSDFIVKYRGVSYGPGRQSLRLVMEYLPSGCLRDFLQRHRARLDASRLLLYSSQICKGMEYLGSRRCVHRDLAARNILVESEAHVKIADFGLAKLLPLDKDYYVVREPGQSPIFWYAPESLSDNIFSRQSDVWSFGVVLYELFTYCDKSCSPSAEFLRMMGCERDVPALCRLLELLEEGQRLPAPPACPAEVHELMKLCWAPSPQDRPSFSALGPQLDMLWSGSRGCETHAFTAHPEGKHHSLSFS
Description: as §2
as §1, with “black, non-binding,” for “white,”, “Corning” for “Greiner”, “#4514, Corning),” for “#784207, Greiner),”, “10” for “16”, “The kinase reaction was” for “Plates were”, “quenched by the addition of 5 μL of Development Reagent (ThermoFisher Scientific proprietary). […]” for “read using a fluorescence plate reader.”
JAK3: The 2×JAK3/Tyr 06 (ThermoFisher Scientific proprietary) mixture was prepared in 50 mM HEPES pH 7.5. 0.01% BRIJ-35, 10 mM MgCl2, 1 mM EGTA. […] After the 1 hour Kinase Reaction incubation, 5 μL of a 1:128 dilution of Development Reagent was added.

[5] = biological target: AURKA (Aurora A) (Homo sapiens (Human), UniProt O14965); assay: Aurora-A enzyme assay (Z'-LYTE); assay type: biochemical; details: 10 μM ATP, arithmetic mean of two or more experiments; for IC50: read-out: AurA enz pIC50 (converted)
Sequence of AURKA (Aurora A) (O14965 whole entry): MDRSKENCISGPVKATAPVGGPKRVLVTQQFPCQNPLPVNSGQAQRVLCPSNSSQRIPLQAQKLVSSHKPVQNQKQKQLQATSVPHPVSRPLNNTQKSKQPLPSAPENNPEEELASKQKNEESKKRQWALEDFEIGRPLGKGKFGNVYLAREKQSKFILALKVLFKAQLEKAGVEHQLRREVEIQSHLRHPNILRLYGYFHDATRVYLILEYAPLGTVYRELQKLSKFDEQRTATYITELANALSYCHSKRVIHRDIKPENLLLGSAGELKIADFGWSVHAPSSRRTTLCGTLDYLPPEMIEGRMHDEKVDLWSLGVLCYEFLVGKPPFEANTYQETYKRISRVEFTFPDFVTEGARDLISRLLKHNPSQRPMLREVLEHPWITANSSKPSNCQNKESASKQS
Description: as §2
as §1, with “black, non-binding,” for “white,”, “Corning” for “Greiner”, “#4514, Corning),” for “#784207, Greiner),”, “10” for “16”, “The kinase reaction was” for “Plates were”, “quenched by the addition of 5 μL of Development Reagent (ThermoFisher Scientific proprietary). […]” for “read using a fluorescence plate reader.”
Aurora A (AurA): The 2×AURKA (Aurora A)/Ser/Thr 01 (ThermoFisher Scientific proprietary) mixture was prepared in 50 mM HEPES pH 7.5, 0.01% BRIJ-35, 10 mM MgCl2, 1 mM EGTA. […] After the 1 hour Kinase Reaction incubation, 5 μL of a 1:4096 dilution of Development Reagent was added.

[6] = biological target: AURKB (Aurora B) (Homo sapiens (Human), UniProt Q96GD4); assay: Aurora-B enzyme assay (Z'-LYTE); assay type: biochemical; details: 75 μM ATP, arithmetic mean of two or more experiments; for IC50: read-out: AurB enz pIC50 (converted)
Sequence of AURKB (Aurora B) (Q96GD4 whole entry): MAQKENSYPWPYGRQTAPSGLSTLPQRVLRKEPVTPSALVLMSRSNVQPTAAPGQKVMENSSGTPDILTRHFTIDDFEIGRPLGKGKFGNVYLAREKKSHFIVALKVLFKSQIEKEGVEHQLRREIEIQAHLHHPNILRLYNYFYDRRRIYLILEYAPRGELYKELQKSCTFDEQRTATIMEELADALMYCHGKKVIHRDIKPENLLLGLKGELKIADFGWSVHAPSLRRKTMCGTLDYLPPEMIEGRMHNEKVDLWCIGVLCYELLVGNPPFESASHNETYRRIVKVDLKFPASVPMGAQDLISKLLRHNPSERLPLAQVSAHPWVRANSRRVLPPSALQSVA
Description: as §2
as §1, with “black, non-binding,” for “white,”, “Corning” for “Greiner”, “#4514, Corning),” for “#784207, Greiner),”, “10” for “16”, “The kinase reaction was” for “Plates were”, “quenched by the addition of 5 μL of Development Reagent (ThermoFisher Scientific proprietary). […]” for “read using a fluorescence plate reader.”
Aurora B (AurB): The 2×AURKB (Aurora B)/Ser/Thr 01 (ThermoFisher Scientific proprietary) mixture was prepared in 50 mM HEPES pH 7.5, 0.01% BRIJ-35, 10 mM MgCl2, 1 mM EGTA. […] After the 1 hour Kinase Reaction incubation, 5 μL of a 1:4096 dilution of Development Reagent was added.

Sequence of TTK (P33981 whole entry): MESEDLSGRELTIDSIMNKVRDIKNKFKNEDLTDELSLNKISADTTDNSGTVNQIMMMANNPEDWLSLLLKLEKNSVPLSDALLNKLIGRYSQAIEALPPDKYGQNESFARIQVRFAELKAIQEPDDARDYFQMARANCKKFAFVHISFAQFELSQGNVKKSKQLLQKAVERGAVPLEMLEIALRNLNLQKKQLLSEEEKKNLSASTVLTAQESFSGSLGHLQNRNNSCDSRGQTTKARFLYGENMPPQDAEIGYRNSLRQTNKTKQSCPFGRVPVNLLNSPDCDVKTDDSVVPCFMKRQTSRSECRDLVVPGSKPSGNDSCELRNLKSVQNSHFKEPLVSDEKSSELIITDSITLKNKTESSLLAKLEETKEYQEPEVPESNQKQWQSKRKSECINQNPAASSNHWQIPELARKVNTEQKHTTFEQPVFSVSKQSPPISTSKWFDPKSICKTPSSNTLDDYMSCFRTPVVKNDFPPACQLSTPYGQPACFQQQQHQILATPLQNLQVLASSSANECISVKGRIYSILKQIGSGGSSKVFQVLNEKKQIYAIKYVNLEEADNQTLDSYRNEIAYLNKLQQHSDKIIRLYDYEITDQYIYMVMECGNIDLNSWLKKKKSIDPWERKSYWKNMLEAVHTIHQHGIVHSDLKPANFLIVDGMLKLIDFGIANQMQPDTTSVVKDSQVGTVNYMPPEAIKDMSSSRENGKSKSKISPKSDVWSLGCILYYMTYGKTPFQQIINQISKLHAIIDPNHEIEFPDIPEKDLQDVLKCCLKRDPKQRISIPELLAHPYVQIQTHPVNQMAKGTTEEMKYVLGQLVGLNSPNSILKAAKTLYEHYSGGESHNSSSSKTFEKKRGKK

Compound | TTK enz pIC50 [1] | JAK1 enz pIC50 [2] | JAK2 enz pIC50 [3] | JAK3 enz pIC50 [4] | AurA enz pIC50 [5] | AurB enz pIC50 [6] | IC50 [1] [µM] | IC50 [2] [µM] | IC50 [3] [µM] | IC50 [4] [µM] | IC50 [5] [µM] | IC50 [6] [µM]
CC(=O)N1CCC(n2c(=O)n(C)c3cnc(Nc4cc5cncnc5cc4C)nc32)CC1 [Example 3, 9-(1-acetylpiperidin-4-yl)-7-methyl-2-((7-methylquinazolin-6-yl)amino)-7,9-dihydro-8H-purin-8-one] | 5.4 | <5 | <5 | <5 | <5 | <5 | – | – | – | – | – | –
CC(=O)N1CCC(n2c(=O)n(C)c3cnc(Nc4cc5cccnc5cc4C)nc32)CC1 [Example 51, 9-(1-acetylpiperidin-4-yl)-7-methyl-2-((7-methylquinolin-6-yl)amino)-7,9-dihydro-8H-purin-8-one] | 6.4 | <5 | <5 | <5 | <5 | <5 | – | – | – | – | – | –
Cc1cc2nccnc2cc1Nc1ncc2c(n1)n([C@H]1CC[C@](C)(O)CC1)c(=O)n2C [Example 18, 9-((1r,4r)-4-hydroxy-4-methylcyclohexyl)-7-methyl-2-((7-methylquinoxalin-6-yl)amino)-7,9-dihydro-8H-purin-8-one] | – | – | – | – | – | – | 1.58 | > 10 | > 10 | > 10 | > 10 | > 10
Cc1cnc2cc(C)c(Nc3ncc4c(n3)n(C3CCOCC3)c(=O)n4C)cc2n1 [Example 34, 2-((3,7-dimethylquinoxalin-6-yl)amino)-7-methyl-9-(tetrahydro-2H-pyran-4-yl)-7,9-dihydro-8H-purin-8-one] | – | – | – | – | – | – | 5.01 | > 10 | > 10 | > 10 | > 10 | > 10
CC(=O)N1CCC(n2c(=O)n(C)c3cnc(Nc4cc5ccnnc5cc4C)nc32)CC1 [Example 1, 9-(1-acetylpiperidin-4-yl)-7-methyl-2-((7-methylcinnolin-6-yl)amino)-7,9-dihydro-8H-purin-8-one] | 5.9 | <5 | <5.2 | <5 | <5 | <5 | – | – | – | – | – | –
Cc1cc2nccnc2cc1Nc1ncc2c(n1)n([C@@H]1CCOC1)c(=O)n2C [Example 24, (R)-7-methyl-2-((7-methylquinoxalin-6-yl)amino)-9-(tetrahydrofuran-3-yl)-7,9-dihydro-8H-purin-8-one] | 5.6 | <5 | <5 | <5 | <5 | <5 | – | – | – | – | – | –
Cc1cc2nnccc2cc1Nc1ncc2c(n1)n([C@H]1CC[C@@H](O)CC1)c(=O)n2C [Example 12, 9-((1s,4s)-4-hydroxycyclohexyl)-7-methyl-2-((7-methylcinnolin-6-yl)amino)-7,9-dihydro-8H-purin-8-one] | 6.3 | <5 | <5 | <5 | <5 | <5 | – | – | – | – | – | –
Cc1cc2ncccc2cc1Nc1ncc2c(n1)n([C@@H]1CCN(C)C[C@@H]1F)c(=O)n2C [Example 46, 9-((3S,4R)-3-fluoro-1-methylpiperidin-4-yl)-7-methyl-2-((7-methylquinolin-6-yl)amino)-7,9-dihydro-8H-purin-8-one] | 5.4 | <5 | <5 | <5 | <5 | <5 | – | – | – | – | – | –
Cc1cc2nccnc2cc1Nc1ncc2c(n1)n([C@H]1CC[C@@](C)(O)CC1)c(=O)n2C [Example 19, 9-((1s,4s)-4-hydroxy-4-methylcyclohexyl)-7-methyl-2-((7-methylquinoxalin-6-yl)amino)-7,9-dihydro-8H-purin-8-one] | – | – | – | – | – | – | 0.2 | > 10 | > 10 | > 10 | > 10 | > 10
Cc1cc2nnccc2cc1Nc1ncc2c(n1)n([C@H]1CCOC1)c(=O)n2C [Example 21, (S)-7-methyl-2-((7-methylcinnolin-6-yl)amino)-9-(tetrahydrofuran-3-yl)-7,9-dihydro-8H-purin-8-one] | 6.4 | <5 | <5 | <5 | <5 | <5 | – | – | – | – | – | –
Cc1cnc2cc(Nc3ncc4c(n3)n(C3CCOCC3)c(=O)n4C)c(C)cc2n1 [Example 33, 2-((2,7-dimethylquinoxalin-6-yl)amino)-7-methyl-9-(tetrahydro-2H-pyran-4-yl)-7,9-dihydro-8H-purin-8-one] | – | – | – | – | – | – | 1.26 | > 10 | > 10 | > 10 | > 10 | > 10
Cc1cc2nccnc2cc1Nc1ncc2c(n1)n([C@@H]1CCCOC1)c(=O)n2C [Example 26, (R)-7-methyl-2-((7-methylquinoxalin-6-yl)amino)-9-(tetrahydro-2H-pyran-3-yl)-7,9-dihydro-8H-purin-8-one] | 5.8 | <5 | <5 | <5 | <5 | <5 | – | – | – | – | – | –
Cc1cc2nnccc2cc1Nc1ncc2c(n1)n([C@H]1CC[C@H](O)CC1)c(=O)n2C [Example 7, 9-((1r,4r)-4-hydroxycyclohexyl)-7-methyl-2-((7-methylcinnolin-6-yl)amino)-7,9-dihydro-8H-purin-8-one] | 6.9 | <5 | <5 | <5 | <5 | <5 | – | – | – | – | – | –
COc1ccnc2cc(C)c(Nc3ncc4c(n3)n([C@H]3CC[C@H](O)CC3)c(=O)n4C)cc12 [Example 9, 9-((1r,4r)-4-hydroxycyclohexyl)-2-((4-methoxy-7-methylquinolin-6-yl)amino)-7-methyl-7,9-dihydro-8H-purin-8-one] | 6.1 | <5 | <5 | <5 | <5.1 | <5 | – | – | – | – | – | –
